Results from US9156790B2, “Anticancer P21-activated kinase inhibitors” (Ohio State Innovation Foundation, priority 2013, dated 2015).
Entries after “also recorded” stand apart in the source; their conditions may differ. Read-outs that look alike come from different tables or passages of the source.

How the values were obtained:
PKCα = PKCα (Homo sapiens, UniProt P17252); test: Kinase profiling panel: PKCα; format: biochemical; settings: 5 μM compound; average of triplicate
Description: (§1) To further probe the selectivity of the compounds 4 and 15, they were subjected for kinase profiling service for screening against a panel of other kinases selected based on the kinase tree at 5 μM concentration, at or above the IC50 for the two compounds versus PAK in both in vitro and cell-based assays. […] PAK1 was not available for testing using this system thus it was not possible to compare directly in this assay system.

PAK6 = PAK6 (Homo sapiens, UniProt Q9NQU5); test: Kinase profiling panel: PAK6; format: biochemical; settings: 5 μM compound; average of triplicate
Description: as §1

ROCK-II = ROCK-II (Homo sapiens, UniProt O75116); test: Kinase profiling panel: ROCK-II; format: biochemical; settings: 5 μM compound; average of triplicate
Description: as §1

FAK = FAK (Homo sapiens, UniProt Q05397); test: Kinase profiling panel: FAK; format: biochemical; settings: 5 μM compound; average of triplicate
Sequence of FAK (Q05397 whole entry, species assumed): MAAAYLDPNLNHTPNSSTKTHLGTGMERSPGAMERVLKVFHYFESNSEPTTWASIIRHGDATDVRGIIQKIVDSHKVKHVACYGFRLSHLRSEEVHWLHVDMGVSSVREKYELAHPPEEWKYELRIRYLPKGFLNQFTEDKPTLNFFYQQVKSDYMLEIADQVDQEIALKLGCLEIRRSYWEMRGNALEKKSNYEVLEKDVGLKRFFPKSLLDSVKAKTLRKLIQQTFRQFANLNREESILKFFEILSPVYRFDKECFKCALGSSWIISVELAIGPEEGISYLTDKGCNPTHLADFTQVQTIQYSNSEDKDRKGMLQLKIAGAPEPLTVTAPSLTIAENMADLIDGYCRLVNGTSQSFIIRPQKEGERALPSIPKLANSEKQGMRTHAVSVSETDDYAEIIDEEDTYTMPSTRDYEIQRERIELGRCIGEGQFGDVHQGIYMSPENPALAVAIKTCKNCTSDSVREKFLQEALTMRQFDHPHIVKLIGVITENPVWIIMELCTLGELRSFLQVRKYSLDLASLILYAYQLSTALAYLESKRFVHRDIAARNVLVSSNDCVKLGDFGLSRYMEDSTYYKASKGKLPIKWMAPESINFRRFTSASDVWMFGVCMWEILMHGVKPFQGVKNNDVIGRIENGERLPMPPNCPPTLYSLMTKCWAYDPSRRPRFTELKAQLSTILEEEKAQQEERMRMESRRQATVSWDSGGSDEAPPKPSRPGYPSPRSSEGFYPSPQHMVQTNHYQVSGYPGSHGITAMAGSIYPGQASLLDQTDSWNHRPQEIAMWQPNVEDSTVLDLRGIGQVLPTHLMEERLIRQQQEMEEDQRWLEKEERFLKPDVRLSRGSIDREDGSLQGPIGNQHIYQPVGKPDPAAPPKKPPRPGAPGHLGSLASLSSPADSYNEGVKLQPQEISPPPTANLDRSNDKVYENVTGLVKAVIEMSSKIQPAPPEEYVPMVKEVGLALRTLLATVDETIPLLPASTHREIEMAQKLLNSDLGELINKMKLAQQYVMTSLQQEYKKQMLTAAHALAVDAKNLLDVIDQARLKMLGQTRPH
Description: as §1

PKBβ = PKBβ (Homo sapiens, UniProt P31751); test: Kinase profiling panel: PKBβ; format: biochemical; settings: read-out: % activity vs. DMSO, PKBβ
Sequence of PKBβ (P31751 whole entry, species assumed): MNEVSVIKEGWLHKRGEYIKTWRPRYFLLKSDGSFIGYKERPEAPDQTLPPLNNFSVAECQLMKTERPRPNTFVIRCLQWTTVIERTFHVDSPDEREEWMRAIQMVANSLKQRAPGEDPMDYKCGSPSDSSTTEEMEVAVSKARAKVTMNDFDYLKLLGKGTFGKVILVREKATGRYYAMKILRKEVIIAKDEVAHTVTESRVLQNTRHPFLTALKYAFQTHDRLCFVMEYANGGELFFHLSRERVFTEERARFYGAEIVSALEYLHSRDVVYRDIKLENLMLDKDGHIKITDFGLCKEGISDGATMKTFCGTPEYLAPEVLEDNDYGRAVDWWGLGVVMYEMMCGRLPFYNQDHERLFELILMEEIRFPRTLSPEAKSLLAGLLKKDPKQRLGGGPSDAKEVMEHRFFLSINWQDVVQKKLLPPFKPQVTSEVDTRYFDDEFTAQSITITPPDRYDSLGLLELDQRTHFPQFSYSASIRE
Description: as §1

PAK5 = PAK5 (Homo sapiens, UniProt Q9P286); test: Kinase profiling panel: PAK5; format: biochemical; settings: 5 μM compound; average of triplicate
Sequence of PAK5 (Q9P286 whole entry): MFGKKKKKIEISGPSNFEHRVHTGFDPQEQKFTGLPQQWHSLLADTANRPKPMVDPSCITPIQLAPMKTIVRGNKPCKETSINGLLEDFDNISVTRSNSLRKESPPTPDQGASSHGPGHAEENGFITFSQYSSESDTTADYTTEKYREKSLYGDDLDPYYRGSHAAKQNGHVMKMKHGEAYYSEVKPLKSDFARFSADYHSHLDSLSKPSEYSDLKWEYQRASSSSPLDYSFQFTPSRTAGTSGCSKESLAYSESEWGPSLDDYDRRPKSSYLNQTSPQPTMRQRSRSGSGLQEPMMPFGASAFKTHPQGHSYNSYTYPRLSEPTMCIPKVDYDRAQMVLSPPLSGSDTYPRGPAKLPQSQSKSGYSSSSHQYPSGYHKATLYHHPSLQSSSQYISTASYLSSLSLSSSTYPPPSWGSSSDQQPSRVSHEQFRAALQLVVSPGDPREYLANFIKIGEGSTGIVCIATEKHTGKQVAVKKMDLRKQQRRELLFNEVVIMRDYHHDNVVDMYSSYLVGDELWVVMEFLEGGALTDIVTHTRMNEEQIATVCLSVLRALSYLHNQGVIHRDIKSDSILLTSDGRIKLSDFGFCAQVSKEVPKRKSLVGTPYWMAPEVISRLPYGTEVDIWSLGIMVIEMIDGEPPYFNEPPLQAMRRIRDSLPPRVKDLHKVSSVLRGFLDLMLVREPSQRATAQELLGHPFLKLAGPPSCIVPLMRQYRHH
Description: as §1

IGF-1R, activated = IGF-1R, activated (Homo sapiens, UniProt P08069); test: Kinase profiling panel: IGF-1R, activated; format: biochemical; settings: 5 μM compound; average of triplicate
Sequence of IGF-1R, activated (P08069 31-1367): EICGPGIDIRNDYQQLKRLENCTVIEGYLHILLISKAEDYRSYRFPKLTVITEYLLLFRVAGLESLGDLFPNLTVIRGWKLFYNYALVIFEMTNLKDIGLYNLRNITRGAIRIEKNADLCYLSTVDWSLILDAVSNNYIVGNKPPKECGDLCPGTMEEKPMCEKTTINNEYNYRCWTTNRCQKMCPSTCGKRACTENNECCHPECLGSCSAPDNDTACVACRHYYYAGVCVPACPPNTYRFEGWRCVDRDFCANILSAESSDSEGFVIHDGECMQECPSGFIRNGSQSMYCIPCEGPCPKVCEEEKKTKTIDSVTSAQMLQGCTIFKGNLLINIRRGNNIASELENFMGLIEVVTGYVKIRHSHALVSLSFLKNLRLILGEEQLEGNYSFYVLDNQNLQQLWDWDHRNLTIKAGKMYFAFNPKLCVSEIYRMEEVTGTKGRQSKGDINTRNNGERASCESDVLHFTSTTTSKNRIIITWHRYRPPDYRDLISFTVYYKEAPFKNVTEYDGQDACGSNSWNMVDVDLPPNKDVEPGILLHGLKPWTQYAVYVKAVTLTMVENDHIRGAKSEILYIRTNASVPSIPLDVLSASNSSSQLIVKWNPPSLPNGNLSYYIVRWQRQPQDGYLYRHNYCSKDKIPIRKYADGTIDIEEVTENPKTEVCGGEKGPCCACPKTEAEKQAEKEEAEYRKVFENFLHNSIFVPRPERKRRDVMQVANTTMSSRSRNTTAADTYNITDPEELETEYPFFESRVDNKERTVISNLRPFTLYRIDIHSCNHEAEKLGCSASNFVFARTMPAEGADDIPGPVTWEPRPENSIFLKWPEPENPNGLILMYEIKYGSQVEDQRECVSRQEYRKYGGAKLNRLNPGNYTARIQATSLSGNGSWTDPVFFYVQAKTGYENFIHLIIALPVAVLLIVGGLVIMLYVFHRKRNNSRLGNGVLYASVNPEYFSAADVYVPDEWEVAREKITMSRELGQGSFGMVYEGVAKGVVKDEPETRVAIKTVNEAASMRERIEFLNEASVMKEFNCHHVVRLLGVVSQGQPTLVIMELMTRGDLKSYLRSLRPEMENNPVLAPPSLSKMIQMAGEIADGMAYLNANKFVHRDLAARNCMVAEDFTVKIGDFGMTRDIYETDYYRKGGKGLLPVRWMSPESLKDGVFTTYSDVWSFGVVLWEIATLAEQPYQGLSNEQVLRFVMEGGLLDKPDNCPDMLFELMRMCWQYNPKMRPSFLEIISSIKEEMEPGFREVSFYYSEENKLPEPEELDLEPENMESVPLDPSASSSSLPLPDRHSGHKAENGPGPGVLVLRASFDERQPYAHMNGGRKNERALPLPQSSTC
Description: as §1

JAK2 = JAK2 (Homo sapiens, UniProt O60674); test: Kinase profiling panel: JAK2; format: biochemical; settings: 5 μM compound; average of triplicate
Description: as §1

C-RAF = C-RAF (Homo sapiens, UniProt P04049); test: Kinase profiling panel: C-RAF; format: biochemical; settings: 5 μM compound; average of triplicate
Sequence of C-RAF (P04049 whole entry, species assumed): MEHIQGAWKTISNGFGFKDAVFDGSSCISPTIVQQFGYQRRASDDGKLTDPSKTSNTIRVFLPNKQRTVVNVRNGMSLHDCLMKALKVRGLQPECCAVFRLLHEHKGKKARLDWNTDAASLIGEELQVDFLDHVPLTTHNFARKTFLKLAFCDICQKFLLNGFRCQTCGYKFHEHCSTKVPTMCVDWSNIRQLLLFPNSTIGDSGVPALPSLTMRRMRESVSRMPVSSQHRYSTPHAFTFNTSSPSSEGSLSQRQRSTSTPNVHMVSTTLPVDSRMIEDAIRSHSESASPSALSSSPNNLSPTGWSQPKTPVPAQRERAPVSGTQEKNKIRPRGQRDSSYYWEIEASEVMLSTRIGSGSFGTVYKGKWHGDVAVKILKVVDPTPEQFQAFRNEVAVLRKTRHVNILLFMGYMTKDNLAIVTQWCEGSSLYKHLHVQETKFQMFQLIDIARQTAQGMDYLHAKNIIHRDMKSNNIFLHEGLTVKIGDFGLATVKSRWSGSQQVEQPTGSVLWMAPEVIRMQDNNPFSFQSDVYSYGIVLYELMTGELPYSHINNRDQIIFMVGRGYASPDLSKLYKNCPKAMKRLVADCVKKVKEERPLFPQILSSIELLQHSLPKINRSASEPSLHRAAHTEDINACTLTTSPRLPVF
Description: as §1

FTC133 cells = test: Boyden chamber migration assay, FTC133; format: cell-based, Human; settings: 2.5 μM or 5.0 μM, 12 hours
Description: Cells were grown in media containing 10% FBS. After 24 hours, the medium was aspirated, and media containing 1% FBS was added for 24 hours. The cells were trypsinized for 2 to 5 minutes, washed, and resuspended in media containing 1% FBS. The cell concentration was calculated by hemocytometer. Four hundred μl 1% FBS medium was added into 24-well plates, and a Boyden chamber (8 μm pore) was inserted into each well. Cells were added to each insert, and were allowed to attach in an incubator at 37° C. at 5% CO2 for 2 hours. The cells were then exposed to various concentrations of drugs or control diluent for 3 hours. The inserts were switched to a new well containing media containing 10% FBS, and the chamber was incubated for 12 or 24 hours depending on the migration rate of the cell line. The cells on and under the Boyden chamber membrane were fixed with 3.7% formaldehyde containing 0.05% crystal violet for 15 min after washing cells with PBS. The chambers were washed with distilled water. […] The Q-tips containing the scraped cells and the Boyden chamber containing the non-migrated cells were separately incubated in 80% methanol, shaken at 500 g for 30 minutes, and the extracted dye was measured at 570 nm. Migration was quantified as the ratio of the migrated cells over the total cells (non-migrated plus […]). […]

PKA = PKA (Homo sapiens, UniProt P17612); test: Kinase profiling panel: PKA; format: biochemical; settings: 5 μM compound; average of triplicate
Description: as §1

CHK1 = CHK1 (Homo sapiens, UniProt O14757); test: Kinase profiling panel: CHK1; format: biochemical; settings: 5 μM compound; average of triplicate
Description: as §1

CaMKI = CaMKI (Homo sapiens, UniProt Q14012); test: Kinase profiling panel: CaMKI; format: biochemical; settings: 5 μM compound; average of triplicate
Sequence of CaMKI (Q14012 whole entry, species assumed): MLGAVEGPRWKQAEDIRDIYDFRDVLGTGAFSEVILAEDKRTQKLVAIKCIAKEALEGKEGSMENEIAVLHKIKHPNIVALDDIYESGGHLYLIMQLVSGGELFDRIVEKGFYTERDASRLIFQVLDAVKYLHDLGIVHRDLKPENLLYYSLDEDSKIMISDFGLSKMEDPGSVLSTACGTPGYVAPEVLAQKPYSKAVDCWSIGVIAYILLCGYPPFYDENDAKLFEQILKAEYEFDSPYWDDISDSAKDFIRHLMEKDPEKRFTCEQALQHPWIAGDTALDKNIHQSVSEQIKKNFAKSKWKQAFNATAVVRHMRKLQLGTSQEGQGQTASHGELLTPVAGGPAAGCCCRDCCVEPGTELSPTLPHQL
Description: as §1

ERK phosphorylation = test: Western blot, ERK phosphorylation in thyroid cancer cells; format: cell-based, Human; settings: 6 hours
Description: Protein isolation and Western blot were performed as previously described. Ringel et al., Cancer research 61:6105-6111 (2001). 25 μg of total cell lysates were loaded into 4-12% SDS-PAGE, electrophoresed, and transferred to nitrocellulose membranes for immunoblotting. Primary antibodies against Akt (#9272), phospho-Akt (Thr308) (#2965), p44/42 MAPK (Erk1/2) (#9107), phospho-p44/42 MAPK (Erk1/2) (Thr202/Tyr204) (#4377) and GAPDH (#2118) were obtained from Cell Signaling Technology (Danvers, Mass., USA). Antibody against Vimentin (V6630) and phospho-Ser55 Vimentin were from Sigma-Aldrich, Inc. (St. Louis, Mo.) and MBL Co. (Nagoya, Japan), respectively. Antibodies against total and phosphorylated S6 were from Cell Signaling Technology®.
The dose-dependency of compounds 4 and 15 was next assessed (FIG. 4). […] Due to the important role that ERK activation plays in thyroid cancer, and its signaling activation by thyroid oncogenes, the effects of the compounds on ERK phosphorylation was also assessed.

Met = Met (Homo sapiens, UniProt P08581); test: Kinase profiling panel: Met; format: biochemical; settings: 5 μM compound; average of triplicate
Description: as §1

GSK3β = GSK3β (Homo sapiens, UniProt P49841); test: Kinase profiling panel: GSK3β; format: biochemical; settings: 5 μM compound; average of triplicate
Sequence of GSK3β (P49841 whole entry, species assumed): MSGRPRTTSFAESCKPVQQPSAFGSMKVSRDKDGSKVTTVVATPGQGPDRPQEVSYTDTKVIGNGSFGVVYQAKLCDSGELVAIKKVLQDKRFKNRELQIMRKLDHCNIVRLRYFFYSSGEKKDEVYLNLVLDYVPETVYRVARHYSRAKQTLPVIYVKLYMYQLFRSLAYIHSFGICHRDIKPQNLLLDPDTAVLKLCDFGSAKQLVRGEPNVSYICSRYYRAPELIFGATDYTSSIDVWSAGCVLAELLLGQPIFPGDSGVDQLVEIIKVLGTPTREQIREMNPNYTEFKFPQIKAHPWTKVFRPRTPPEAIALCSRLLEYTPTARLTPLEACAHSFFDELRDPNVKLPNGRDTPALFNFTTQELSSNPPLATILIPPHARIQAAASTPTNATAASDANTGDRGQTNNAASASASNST
Description: as §1

Src(T341M) = Src(T341M) (Homo sapiens, UniProt P12931, T341M); test: Kinase profiling panel: Src(T341M); format: biochemical; settings: 5 μM compound; average of triplicate
Description: as §1

Structure (SMILES)	% activity vs. DMSO, PKCα (PKCα)	% activity vs. DMSO, PAK6 (PAK6)	% activity vs. DMSO, ROCK-II (ROCK-II)	% activity vs. DMSO, FAK (FAK)	remaining activity at 5 µM (PKBβ; 5 μM compound, average of triplicate)	% activity vs. DMSO, PAK5 (PAK5)	% activity vs. DMSO, IGF-1R, activated (IGF-1R, activated)	% activity vs. DMSO, JAK2 (JAK2)	% activity vs. DMSO, C-RAF (C-RAF)	Migration of FTC133 cells (FTC133 cells)	% activity vs. DMSO, PKA (PKA)	% activity vs. DMSO, CHK1 (CHK1)	% activity vs. DMSO, CaMKI (CaMKI)	ERK phosphorylation, all three cell lines (ERK phosphorylation; dose-response, BCPAP, FTC133 and TPC1 cells)	% activity vs. DMSO, Met (Met)	% activity vs. DMSO, GSK3β (GSK3β)	% activity vs. DMSO, Src(T341M) (Src(T341M))	remaining activity at 5 µM (PKBβ)	ERK phosphorylation, BCPAP cells (ERK phosphorylation; 2.5 μM, BCPAP cells (BRAF V600E))	ERK phosphorylation, other two cell lines (ERK phosphorylation; FTC133 and TPC1 cells)
NCCC(=O)Nc1ccc(-n2nc(C(F)(F)F)cc2-c2ccc3ccc4ccccc4c3c2)cc1 [Compound 4, 3-amino-N-(4-(5-(phenanthren-3-yl)-3-(trifluoromethyl)-1H-pyrazol-1-yl)phenyl)-propanamide]	92%	81%	79%	87%	76%	114%	97%	152%	104%	not inhibited; also recorded: neither compound significantly inhibited migration	110%	82%	65%	no demonstrable effects on ERK phosphorylation	89%	170%	105%			
CC(C)NC(=O)c1cc(-c2ccc3ccc4ccccc4c3c2)n(-c2ccc(NC(=O)CN)cc2)n1 [Compound 15, 1-(4-(2-Aminoacetamido)phenyl)-N-isopropyl-5-(phenanthren-3-yl)-1H-pyrazole-3-carboxamide]	92%	101%	96%	96%		104%	83%	139%	108%	not inhibited; also recorded: neither compound significantly inhibited migration	119%	89%	68%		77%	137%	94%	84%	inhibited ERK phosphorylation	at higher concentrations
